Source: patent publication US20230104692A1, “DMEU ENHANCER” (priority 2020, published 2023)

Columns and labels:
[1] = in words; cited from earlier work
[2] = loading concentration of saturated active ingredient solution in penetration accelerator; assay type: physicochemical; settings: for loading concentration in dimethyl isosorbide: dimethyl isosorbide as penetration accelerator; for loading concentration of saturated solution in DMEU: donor volume 150 μl
Protocol: The following test series with the various penetration accelerators and for the selected active ingredients were carried out in the context of a typical in vitro permeation using Franz diffusion cells. The used acceptor medium was replaced completely for a new one at predetermined replacement times, and the content of permeated active ingredient amount in these acceptor solutions was determined by means of HPLC.

In the case of `CCOC(=O)C1=C(C)NC(C)=C(C(=O)OC)C1c1cccc(Cl)c1Cl` (stereo not drawn) [Felodipine], the water solubility [1] is given as “almost insoluble in water”.

With `CC(=O)[C@H]1CC[C@H]2[C@@H]3CCC4=CC(=O)CC[C@]4(C)[C@H]3CC[C@]12C` [Progesterone] the “loading concentration in dimethyl isosorbide” value [2] was 6.4 mg/cm^2, the “loading concentration in dipropylene glycol” value ([2]; dipropylene glycol as penetration accelerator) was 2.1 mg/cm^2 and the “loading concentration of saturated solution in DMEU” value [2] was 27.7 mg/cm^2. For the same compound, the water solubility [1] was “almost insoluble in water”.

In the case of `Cc1cc2c(s1)Nc1ccccc1N=C2N1CCN(C)CC1` [Olanzapine], the water solubility [1] is given as “almost insoluble in water”.

In the case of `COc1cc(/C=C/C(=O)CC(=O)/C=C/c2ccc(O)c(OC)c2)ccc1O` [Curcumin], the “loading concentration in dimethyl isosorbide” value [2] is given as 1.29 mg/cm^2, the “loading concentration of saturated solution in DMEU” value [2] is given as 12.75 mg/cm^2 and the water solubility [1] is given as “almost insoluble in water”.
